PubChem BioAssay (NCI)
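Five compound concentrations were applied to cells in 96-well plates for 48 hours; endpoints were derived by simple linear interpolation of the resulting dose-response curve. GI50 is the concentration that inhibits growth by half. At the TGI there is no net growth.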

What was measured:
Assay in all cases: DTP human tumour cell line panel, 48 h
LOX IMVI melanoma = tested on: LOX IMVI melanoma
HS 578T breast = tested on: HS 578T breast
A549 NSCLC = tested on: A549 NSCLC
SNB-19 CNS = tested on: SNB-19 CNS
UACC-62 melanoma = tested on: UACC-62 melanoma
CAKI-1 renal = tested on: CAKI-1 renal
MOLT-4 leukemia = tested on: MOLT-4 leukemia
HT29 colon = tested on: HT29 colon
SF-295 CNS = tested on: SF-295 CNS
NCI-H226 lung = tested on: NCI-H226 lung

Compound | GI50 (LOX IMVI melanoma) [µM] | TGI (LOX IMVI melanoma) [µM] | GI50 (HS 578T breast) [µM] | TGI (HS 578T breast) [µM] | GI50 (A549 NSCLC) [µM] | TGI (A549 NSCLC) [µM] | GI50 (SNB-19 CNS) [µM] | TGI (SNB-19 CNS) [µM] | GI50 (UACC-62 melanoma) [µM] | TGI (UACC-62 melanoma) [µM] | GI50 (CAKI-1 renal) [µM] | TGI (CAKI-1 renal) [µM] | GI50 (MOLT-4 leukemia) [µM] | TGI (MOLT-4 leukemia) [µM] | GI50 (HT29 colon) [µM] | TGI (HT29 colon) [µM] | GI50 (SF-295 CNS) [µM] | TGI (SF-295 CNS) [µM] | GI50 (NCI-H226 lung) [µM] | TGI (NCI-H226 lung) [µM]
CCCNc1nc2ccccc2c2c1S(=O)(=O)c1ccc(Cl)cc1C2=O | 1.28 | > 50 | 1.21 | > 50 | 1.99 | > 50 | 1.4 | > 50 | 1.28 | > 50 | 1.46 | > 50 | 1.54 | > 50 | 1.65 | > 50 | 1.67 | > 50 | 1.51 | > 50
c1ccc(CNc2nc(Nc3ccccc3)nc3ccccc23)cc1 | 1.88 | 3.4 | 2.17 | 6.01 | 1.84 | 5.35 | 3.16 | 14.6 | 1.48 | 2.95 | 2.04 | 5.18 | 2.21 | 5.37 | 2.06 | 4.88 | 1.73 | 3.77 | 2.26 | 11.6
C=CCCCc1ccc(C(O)CCCCCCCCCCCC)o1 (stereo not drawn) | 16.9 | 31.1 | 25.5 | 55.2 | 30.4 | 96.3 | 17.7 | 32.8 | 17.7 | 43 | 17.4 | 33.2 | 19.6 | 58.8 | 17.1 | 35.4 | 18.2 | 46.6 | 17.8 | 34.3
C=C1[C@@H]([C@@]2(C)C=CC(=O)C(C)(C)[C@@H]2CC(=O)OC)CC[C@@]2(C)C(c3ccoc3)OC(=O)[C@H]3O[C@]132 (stereo partly drawn) | – | > 100 | – | > 100 | – | > 100 | – | > 100 | – | > 100 | – | > 100 | – | > 100 | – | > 100 | – | > 100 | – | > 100
Cc1cc(OCc2nnc3n2N=C(c2ccc(Cl)cc2Cl)CS3)ccc1Cl | 36.3 | > 100 | 37.9 | > 100 | 56.3 | > 100 | 97.2 | > 100 | 34.4 | > 100 | 44.2 | > 100 | 47.7 | > 100 | 59.8 | > 100 | 28.4 | > 100 | 43.6 | > 100
C=C1c2c(Cl)ccc(O)c2C(O)=C2C(=O)[C@]3(O)C(O)=C(C(N)=O)C(=O)[C@@H](N(C)C)[C@@H]3[C@@H](O)[C@H]12 | 0.924 | 3.59 | 1.24 | 9.68 | 1.39 | 16.6 | 1.44 | > 50 | 0.79 | 2.73 | 0.499 | 3.4 | 1.89 | 12.3 | 1.55 | 6.18 | 1.19 | 5 | 1.59 | 8.91
CN1C(Cl)=NS(=O)(=O)c2ccccc21 | – | > 100 | – | > 100 | – | > 100 | – | > 100 | – | > 100 | – | 36.6 | – | > 100 | – | > 100 | – | > 100 | – | > 100
Clc1nc(Cl)c2ncn(Cc3ccc(Cn4cnc5c(Cl)nc(Cl)nc54)cc3)c2n1 | 0.96 | 14.9 | – | > 40.2 | 11.5 | 25.5 | 76.2 | > 100 | 12.5 | 27.8 | 13.6 | 27.8 | 3.88 | 16.1 | – | 16.4 | 7.68 | 48.2 | 11.2 | 51.6
COc1cc2c(c(OC3OC(CO)C(O)C(O)C3O)c1)C(=O)CC(c1ccc(O)cc1)O2 (stereo not drawn) | – | > 100 | – | > 100 | – | > 100 | – | > 100 | – | > 100 | – | > 100 | – | > 100 | – | > 100 | – | > 100 | – | > 100
CO[C@H]1CC(c2ccc[nH]2)=N[C@]12O[C@@H](C)C[C@@H]1CCCCCCCc3ccc([nH]3)[C@H]12 | 0.52 | 1.26 | 0.888 | 7.11 | 1.04 | 7.31 | 3.41 | > 33.3 | 0.659 | 1.45 | 1.18 | 11.3 | 1.01 | 13.6 | 1.04 | > 33.3 | 1.39 | 7.92 | 0.929 | 5.25
N#Cc1cc(S(=O)(=O)Nc2nc3ccccc3s2)c(SCc2ccccc2)cc1Cl | 20.8 | 48.2 | 22.4 | 53.8 | 15.4 | 35.3 | 20.1 | 47.7 | 11.8 | 29.5 | 18.6 | 45 | 27.4 | 74.4 | 23.6 | 55.8 | 13.6 | 44.1 | 31 | 94.3
COc1ccc2nc(NC(=O)c3cccnc3Nc3cc(OC)c(OC)c(OC)c3)sc2c1 | 15.7 | 42.2 | 5.77 | 30.9 | 7.38 | 22 | 15 | 31.7 | 8.45 | 24.6 | 16.4 | 42.5 | 24.2 | > 100 | 17.7 | 39.2 | 8.34 | 27.1 | 10.7 | 96.7
C/C=C(\C)C(=O)N[C@H]1C(O)C[C@]2(C)C3CC[C@@]4(C)C(CC[C@@H]4C(C)N(C)C)C3CCC2C1O (stereo partly drawn) | 1.81 | 4.7 | 6.56 | 29.6 | 9.54 | 33.6 | 18.8 | 43.8 | 2.18 | 4.54 | 9.42 | 38.8 | 4.06 | 17.2 | 1.4 | 5.18 | 8.83 | 29 | 12.1 | > 70.2
CC(Br)C(=O)Nc1ccc(C(=O)O)c(O)c1 (stereo not drawn) | – | > 100 | – | > 100 | – | > 100 | – | > 100 | – | > 100 | – | > 100 | – | > 100 | – | > 100 | – | > 100 | – | > 100
COc1ccc(C2=CC(c3ccc(OC)c(OC)c3)c3c(c4ccccc4oc3=O)O2)cc1OC (stereo not drawn) | 4.22 | > 100 | 0.957 | > 26.9 | 3.07 | > 100 | 1.99 | > 77.3 | 0.473 | > 100 | 1.67 | > 100 | 4.05 | > 100 | 0.822 | 31 | 0.442 | > 100 | > 21.1 | > 100
